{"source": "patent US20230022136A1", "about": "“DIFFUSIVITY CONTRAST AGENTS FOR MEDICAL IMAGING” (priority 2020, published 2023)", "origin": "cited, not measured here", "details": "attributed to increased hydrogen bonding of the water molecules"}
{"smiles": "CC(/C=C/C=C(\\C)C(=O)[O-])=C\\C=C\\C=C(C)\\C=C\\C=C(/C)C(=O)[O-].[Na+].[Na+]", "note": "[Trans-Sodium crocetinate]", "values": [{"measurement": "increase of the diffusion coefficient of glucose through water", "result": "25-30%"}]}
